Experimental data: patent publication US20100298141A1, “SUBSTITUTED PYRIDINE N-OXIDE HERBICIDES” (E. I. DU PONT DE NEMOURS AND COMPANY, priority 2007, published 2010)

Assays:
common ragweed = test: Test F preemergence test; assay type: in vivo, Ambrosia elation; details: scale 0 to 100
Summary of the method: (§1)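 Compound in a non-phytotoxic solvent blend with surfactant is applied preemergence to planted seeds or postemergence to sugarcane plants. Plants and controls stay in the greenhouse 14 to 21 days before visual comparison.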

large crabgrass = test: Test F preemergence test; assay type: in vivo, Digitaria sanguinalis; details: scale 0 to 100
Summary of the method: as §1

johnsongrass = test: Test F preemergence test; assay type: in vivo, Sorghum halepense; details: scale 0 to 100
Summary of the method: as §1

downy brome = test: Test C pre-/postemergence test; assay type: in vivo, Bromus tectorum
Summary of the method: (§2)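 Compounds in a non-phytotoxic solvent with surfactant applied preemergence to seeded pots and, at the same time, postemergence to plants 2–18 cm tall (1- to 4-leaf stage). Paddy tests: pots flooded to 3 cm, compound applied into the water, depth held throughout.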

itchgrass = test: Test F preemergence test; assay type: in vivo, Rottboellia cochinchinensis; details: scale 0 to 100
Summary of the method: as §1

green foxtail = test: Test F preemergence test; assay type: in vivo, Setaria viridis; details: scale 0 to 100
Summary of the method: as §1

Italian ryegrass = test: Test F preemergence test; assay type: in vivo, Lolium multiflorum; details: scale 0 to 100
Summary of the method: as §1

Russian thistle = test: Test C pre-/postemergence test; assay type: in vivo, Salsola kali
Summary of the method: as §2

field bindweed = test: Test F preemergence test; assay type: in vivo, Convolvulus arvensis; details: scale 0 to 100
Summary of the method: as §1

catchweed bedstraw = test: Test C pre-/postemergence test; assay type: in vivo, Galium aparine
Summary of the method: as §2

crabgrass = test: Test A pre-/postemergence greenhouse test; assay type: in vivo, Digitaria sanguinalis; details: for Plant response rating, Crabgrass, Large: 0 to 100 scale where 0 is no effect and 100 is complete control; for Crabgrass, Large plant response rating: 0 to 100 scale
Summary of the method: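 Visual injury ratings, made relative to untreated controls roughly ten days after treatment, cover both preemergence and postemergence application. Compounds in a surfactant-containing non-phytotoxic solvent were sprayed onto the soil surface after sowing and, simultaneously, onto young plants at the one- to two-leaf stage.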

Surinam grass = test: Test F preemergence test; assay type: in vivo, Brachiaria decumbens; details: scale 0 to 100
Summary of the method: as §1

southern sandbur = test: Test F preemergence test; assay type: in vivo, Cenchrus echinatus; details: scale 0 to 100
Summary of the method: as §1

goosegrass = test: Test F preemergence test; assay type: in vivo, Eleusine indica; details: scale 0 to 100
Summary of the method: as §1

[1] = Preemergence, 31 g ai/ha, scale 0 to 100 (0 no effect, 100 complete control)
[2] = preemergence, 250 g ai/ha, scale 0 (no effect) to 100 (complete control)
[3] = 62 g ai/ha, Preemergence, scale 0 to 100
[4] = 125 g ai/ha, preemergence, scale 0 (no effect) to 100 (complete control)

CC(Oc1c(C[S+]([O-])c2ccc(Cl)c[n+]2[O-])c(C(F)(F)F)nn1C)C(F)(F)F (stereo not drawn) [Compound 87]
70: Plant response rating, Ragweed (common ragweed; Preemergence, 62 g ai/ha) | Plant response rating, Galium (catchweed bedstraw; [1]) | Plant response rating, Goosegrass (goosegrass; 16 g ai/ha, preemergence)
85: Plant response rating, Itchgrass (itchgrass; Preemergence, 31 g ai/ha)
40: Plant response rating, Johnsongrass (johnsongrass; 16 g ai/ha, preemergence) | Field Bindweed plant response rating (field bindweed; 125 g ai/ha, preemergence)
65: Plant response rating, Crabgrass, Large (large crabgrass; Preemergence, 31 g ai/ha) | Plant response rating, Foxtail, Green (green foxtail; Preemergence, 31 g ai/ha) | Plant response rating, Surinam Grass (Surinam grass; 16 g ai/ha, preemergence)
80: Plant response rating, Bromegrass, Downy (downy brome; [1]) | Plant response rating, Foxtail, Green (green foxtail; Preemergence, 62 g ai/ha) | Galium plant response rating (catchweed bedstraw; [3]) | Plant response rating, Crabgrass, Large (crabgrass; Postemergence, 125 g ai/ha) | Plant response rating, Goosegrass (goosegrass; Preemergence, 31 g ai/ha)
95: Plant response rating, Crabgrass, Large (large crabgrass; Preemergence, 62 g ai/ha) | Plant response rating, Johnsongrass (johnsongrass; Preemergence, 62 g ai/ha) | Plant response rating, Goosegrass (goosegrass; Preemergence, 62 g ai/ha)
35: Plant response rating, Itchgrass (itchgrass; 16 g ai/ha, preemergence) | Plant response rating, Foxtail, Green (green foxtail; 16 g ai/ha, preemergence)
100: Crabgrass, Large plant response rating (large crabgrass; 125 g ai/ha, preemergence) | Johnsongrass plant response rating (johnsongrass; 125 g ai/ha, preemergence) | Bromegrass, Downy plant response rating (downy brome; [2]) | Itchgrass plant response rating (itchgrass; 125 g ai/ha, preemergence) | Plant response rating, Itchgrass (itchgrass; Preemergence, 62 g ai/ha) | Plant response rating, Ryegrass, Italian (Italian ryegrass; 16 g ai/ha, preemergence) | Ryegrass, Italian plant response rating (Italian ryegrass; 125 g ai/ha, preemergence) | Plant response rating, Ryegrass, Italian (Italian ryegrass; Preemergence, 62 g ai/ha) | Plant response rating, Ryegrass, Italian (Italian ryegrass; Preemergence, 31 g ai/ha) | Russian Thistle plant response rating (Russian thistle; [3]) | Russian Thistle plant response rating (Russian thistle; [4]) | Plant response rating, Russian Thistle (Russian thistle; [1]) | Russian Thistle plant response rating (Russian thistle; [2]) | Galium plant response rating (catchweed bedstraw; [4]) | Galium plant response rating (catchweed bedstraw; [2]) | Plant response rating, Crabgrass, Large (crabgrass; Preemergence, 500 g ai/ha) | Surinam Grass plant response rating (Surinam grass; 125 g ai/ha, preemergence) | Plant response rating, Surinam Grass (Surinam grass; Preemergence, 62 g ai/ha) | Plant response rating, Surinam Grass (Surinam grass; Preemergence, 31 g ai/ha) | Sandbur plant response rating (southern sandbur; 125 g ai/ha, preemergence) | Plant response rating, Sandbur (southern sandbur; Preemergence, 62 g ai/ha) | Plant response rating, Sandbur (southern sandbur; Preemergence, 31 g ai/ha) | Goosegrass plant response rating (goosegrass; 125 g ai/ha, preemergence)
30: Plant response rating, Crabgrass, Large (large crabgrass; 16 g ai/ha, preemergence)
98: Foxtail, Green plant response rating (green foxtail; 125 g ai/ha, preemergence)
0: Plant response rating, Ragweed (common ragweed; 16 g ai/ha, preemergence) | Plant response rating, Ragweed (common ragweed; Preemergence, 31 g ai/ha) | Plant response rating, Field Bindweed (field bindweed; 16 g ai/ha, preemergence) | Plant response rating, Field Bindweed (field bindweed; Preemergence, 31 g ai/ha)
90: Ragweed plant response rating (common ragweed; 125 g ai/ha, preemergence) | Crabgrass, Large plant response rating (crabgrass; Postemergence, 500 g ai/ha, 0 is no effect, 100 is complete control) | Crabgrass, Large plant response rating (crabgrass; Preemergence, 125 g ai/ha, 0 no effect, 100 complete control)
20: Plant response rating, Field Bindweed (field bindweed; Preemergence, 62 g ai/ha)
75: Plant response rating, Johnsongrass (johnsongrass; Preemergence, 31 g ai/ha)
50: Plant response rating, Sandbur (southern sandbur; 16 g ai/ha, preemergence)
